# Tested on: Wnt signaling
# Assay: Wnt-Luc reporter assay for pathway inhibition of Wnt signaling
# Format: cell-based, mouse (TM3 Wnt-Luc) or human (293 Wnt-Luc); not stated which
# Details: Wnt-Luc reporter cells co-cultured with L-cell Wnt3a cells, 24 hours, luciferase signal reduced by 50%
# Description: This example provides a method that is useful for evaluating test compounds for inhibition of Wnt signaling.
# Mouse leydig cell TM3 cells (obtained from American Type Culture Collection, ATCC, Manassas, Va.) are cultured in 1:1 mixture of Ham's F12 medium and Dulbecco's modified Eagle's medium (Gibco/Invitrogen, Carlsbad, Calif.) supplemented with 2.5% FBS (Gibco/Invitrogen, Carlsbad, Calif.) and 5% horse serum (Gibco/Invitrogen, Carlsbad, Calif.), 50 unit/mL penicillin and 50 μg/mL of streptomycin (Gibco/Invitrogen, Carlsbad, Calif.) at 37° C. with 5% CO2 in air atmosphere. TM3 cells in a 10 cm dish are co-transfected with 8 μg of STF-reporter plasmid containing a luciferase gene driven by Wnt-responsive elements and 2 μg of pcDNA3.1-Neo (Gibco/Invitrogen, Carlsbad, Calif.) with 30 μL of FuGENE6 (Roche Diagnostics, Indianapolis, Ind.) following the manufacturer's protocol. Stable cell lines (TM3 Wnt-Luc) were selected with 400 μg/mL of G418 (Gibco/Invitrogen, Carlsbad, Calif.). The TM3 Wnt-Luc cells and L-cell Wnt3a cells (obtained from American Type Culture Collection, ATCC, Manassas, Va.; cultured in Dulbecco's modified Eagle's medium (Gibco/Invitrogen, Carlsbad, Calif.) supplemented with 10% FBS (Gibco/Invitrogen, Carlsbad, Calif.) and 50 unit/mL penicillin and 50 μg/mL of streptomycin (Gibco/Invitrogen, Carlsbad, Calif.) at 37° C. with 5% CO2 in air atmosphere) are trypsinized and co-cultured into a 384-well plate with DMEM medium supplemented with 2% FBS, and treated with different concentrations of a compound of the invention. After 24 hours, the firefly luciferase activities are assayed with the Bright-Glo™ Luciferase Assay System (Promega, Madison, Wis.). The IC50 is measured when the effect of the compound reduces the luminescence signal by 50%.
# This example provides another method that is useful for evaluating test compounds for inhibition of Wnt signaling.
# Human embryonic kidney 293 cells (obtained from American Type Culture Collection, ATCC, Manassas, Va.) are cultured in DMEM medium (Gibco/Invitrogen, Carlsbad, Calif.) supplemented with 10% FBS (Gibco/Invitrogen, Carlsbad, Calif.), 50 unit/mL penicillin and 50 μg/mL of streptomycin (Gibco/Invitrogen, Carlsbad, Calif.) at 37° C. with 5% CO2 in air atmosphere. 293 cells in a 10 cm dish are co-transfected with 8 μg of STF-reporter plasmid containing a luciferase gene driven by Wnt-responsive elements and 2 μg of pcDNA3.1-Neo (Gibco/Invitrogen, Carlsbad, Calif.) with 30 μL of FuGENE6 (Roche Diagnostics, Indianapolis, Ind.) following the manufacturer's protocol. Stable cell lines (293 Wnt-Luc) were selected with 400 μg/mL of G418 (Gibco/Invitrogen, Carlsbad, Calif.). The 293 Wnt-Luc cells and L-cell Wnt3a cells (obtained from American Type Culture Collection, ATCC, Manassas, Va.) are trypsinized and co-cultured into a 384-well plate with DMEM medium supplemented with 2% FBS, and treated with different concentrations of a compound of the invention. After 24 hours, the firefly luciferase activities are assayed with the Bright-Glo™ Luciferase Assay System (Promega, Madison, Wis.). The IC50 is measured when the effect of the compound reduces the luminescence signal by 50%.
row,IC50,SMILES
1,0.0118 µM,"CC(=O)N1CCN(c2ccc(C(=O)NCc3cnc(-c4ccnc(C)c4)c(F)c3)nc2)CC1 [compound 62, 5-(4-acetylpiperazin-1-yl)-N-{[5-fluoro-6-(2-methylpyridin-4-yl)pyridin-3-yl]methyl}pyridine-2-carboxamide]"
2,0.0025 µM,"Cc1cc(-c2ncc(CNC(=O)c3ccc(-c4cnccn4)cn3)cc2C)ccn1 [compound 63, N-((2′,3-dimethyl-2,4′-bipyridin-5-yl)methyl)-5-(pyrazin-2-yl)picolinamide]"
3,0.011 µM,"Cc1c(F)cccc1-c1ccc(C(=O)NCc2ccc(-c3ccnc(C(F)(F)F)c3)nc2)nc1 [compound 64, 5-(3-fluoro-2-methylphenyl)-N-({6-[2-(trifluoromethyl)pyridin-4-yl]pyridin-3-yl}methyl)pyridine-2-carboxamide]"
4,0.0058 µM,"Cc1ccc(F)cc1-c1ccc(C(=O)NCc2ccc(-c3ccnc(C(F)(F)F)c3)nc2)nc1 [compound 65, 5-(5-fluoro-2-methylphenyl)-N-({6-[2-(trifluoromethyl)pyridin-4-yl]pyridin-3-yl}methyl)pyridine-2-carboxamide]"
5,0.045 µM,"Cc1cc(CNC(=O)c2ccc(-c3cnccn3)cn2)cnc1-c1cc[nH]c(=O)c1 [compound 66, N-((5-Methyl-6-(2-oxo-1,2-dihydropyridin-4-yl)pyridin-3-yl)methyl)-5-(pyrazin-2-yl)picolinamide]"
6,0.006 µM,"Cc1ncccc1-c1ccc(C(=O)NCc2ccc(-c3ccnc(C(F)(F)F)c3)nc2)nc1 [compound 67, 5-(2-methylpyridin-3-yl)-N-({6-[2-(trifluoromethyl)pyridin-4-yl]pyridin-3-yl}methyl)pyridine-2-carboxamide]"
7,0.038 µM,"O=C(NCc1ccc(N2CCS(=O)(=O)CC2)nc1)c1ccc(-c2cnccn2)cn1 [compound 68, N-((6-(1,1-dioxidothiomorpholino)pyridin-3-yl)methyl)-5-(pyrazin-2-yl)picolinamide]"
8,0.088 µM,"O=C(NCc1ccc(N2CCS(=O)(=O)CC2)nc1)c1ccc(-c2cnccn2)nc1 [compound 69, N-((6-(1,1-dioxidothiomorpholino)pyridin-3-yl)methyl)-6-(pyrazin-2-yl)nicotinamide]"
9,0.027 µM,"Cc1cc(C(=O)NCc2cnc(-c3ccnc(C(F)(F)F)c3)c(C)c2)ccc1-c1ncccc1C [compound 70, 3-methyl-N-({5-methyl-6-[2-(trifluoromethyl)pyridin-4-yl]pyridin-3-yl}methyl)-4-(3-methylpyridin-2-yl)benzamide]"
10,0.0025 µM,"O=C(NCc1cnc(-c2ccnnc2)c(F)c1)c1ccc(-c2cnccn2)cn1 [compound 71, N-{[5-fluoro-6-(pyridazin-4-yl)pyridin-3-yl]methyl}-5-(pyrazin-2-yl)pyridine-2-carboxamide]"
11,0.0019 µM,"O=C(NCc1ccc(-c2ccnc(C(F)(F)F)c2)nc1)c1ccc(-c2ccc(N3CCCC3=O)nc2)cn1 [compound 72, 6′-(2-Oxopyrrolidin-1-yl)-N-((2′-(trifluoromethyl)-[2,4′-bipyridin]-5-yl)methyl)-[3,3′-bipyridine]-6-carboxamide]"
12,0.006 µM,"Cc1cccnc1-c1ccc(C(=O)NCc2ccc(-c3ccnc(C(F)(F)F)c3)nc2)nc1 [compound 73, 5-(3-methylpyridin-2-yl)-N-({6-[2-(trifluoromethyl)pyridin-4-yl]pyridin-3-yl}methyl)pyridine-2-carboxamide]"
13,0.032 µM,"Cc1cccnc1-c1ccc(C(=O)NCc2cnc(-c3ccnc(C(F)(F)F)c3)c(C)c2)nc1 [compound 74, N-({5-methyl-6-[2-(trifluoromethyl)pyridin-4-yl]pyridin-3-yl}methyl)-5-(3-methylpyridin-2-yl)pyridine-2-carboxamide]"
14,0.0069 µM,"Cc1cc(-c2ncc(CNC(=O)c3ccc(-c4ncccc4C)cn3)cc2F)ccn1 [compound 75, N-{[5-fluoro-6-(2-methylpyridin-4-yl)pyridin-3-yl]methyl}-5-(3-methylpyridin-2-yl)pyridine-2-carboxamide]"
15,0.0012 µM,"Cc1cc(-c2ncc(CNC(=O)c3ccc(-c4cc(F)ccc4C)cn3)cc2F)ccn1 [compound 76, 5-(5-fluoro-2-methylphenyl)-N-{[5-fluoro-6-(2-methylpyridin-4-yl)pyridin-3-yl]methyl}pyridine-2-carboxamide]"
16,0.0063 µM,"Cc1ccc(F)cc1-c1ccc(C(=O)NCc2cnc(-c3ccnc(C(F)(F)F)c3)c(C)c2)nc1 [compound 77, 5-(5-fluoro-2-methylphenyl)-N-({5-methyl-6-[2-(trifluoromethyl)pyridin-4-yl]pyridin-3-yl}methyl)pyridine-2-carboxamide]"
17,0.013 µM,"Cc1cc(C(=O)NCc2cnc(-c3ccnc(C(F)(F)F)c3)c(C)c2)ccc1-c1cnccn1 [compound 78, 3-methyl-N-({5-methyl-6-[2-(trifluoromethyl)pyridin-4-yl]pyridin-3-yl}methyl)-4-(pyrazin-2-yl)benzamide]"
18,0.982 µM,"Cc1cc(C(=O)NCc2cnc(-c3ccnc(C(F)(F)F)c3)c(C)c2)ncc1-c1cnccn1 [compound 79, 4-methyl-N-({5-methyl-6-[2-(trifluoromethyl)pyridin-4-yl]pyridin-3-yl}methyl)-5-(pyrazin-2-yl)pyridine-2-carboxamide]"
19,0.0042 µM,"Cc1cc(-c2ncc(CNC(=O)c3ccc(-c4cc(F)ccc4C)cn3)cc2C)ccn1 [compound 80, 5-(5-fluoro-2-methylphenyl)-N-{[5-methyl-6-(2-methylpyridin-4-yl)pyridin-3-yl]methyl}pyridine-2-carboxamide]"
20,0.02 µM,"Cc1cc(-c2cnc(CNC(=O)c3ccc(-c4cnccn4)cn3)c(C)c2)ccn1 [compound 81, N-((2′,5-dimethyl-3,4′-bipyridin-6-yl)methyl)-5-(pyrazin-2-yl)picolinamide]"
21,0.441 µM,"Cc1cc(C(=O)NCc2cnc(-c3ccnc(C(F)(F)F)c3)c(C)c2)ncc1-c1cc(F)ccc1C [compound 82, 5-(5-fluoro-2-methylphenyl)-4-methyl-N-({5-methyl-6-[2-(trifluoromethyl)pyridin-4-yl]pyridin-3-yl}methyl)pyridine-2-carboxamide]"
22,0.812 µM,"Cc1cc(C(=O)NCc2cnc(-c3ccnc(C(F)(F)F)c3)c(C)c2)ncc1-c1cccc(F)c1 [compound 83, 5-(3-fluorophenyl)-4-methyl-N-({5-methyl-6-[2-(trifluoromethyl)pyridin-4-yl]pyridin-3-yl}methyl)pyridine-2-carboxamide]"
23,0.0027 µM,"CC(=O)N1CCN(c2ccc(C(=O)NCc3cnc(-c4ccnc(C(F)(F)F)c4)c(F)c3)nc2)CC1 [compound 84, 5-(4-Acetylpiperazin-1-yl)-N-((3-fluoro-2′-(trifluoromethyl)-2,4′-bipyridin-5-yl)methyl)picolinamide]"
24,0.00022 µM,"O=C(NCc1cnc(-c2ccnc(C(F)(F)F)c2)c(F)c1)c1ccc(-c2cnccn2)cn1 [compound 85, N-({5-fluoro-6-[2-(trifluoromethyl)pyridin-4-yl]pyridin-3-yl}methyl)-5-(pyrazin-2-yl)pyridine-2-carboxamide]"
25,0.017 µM,"Cc1cc(-c2cnc(CNC(=O)c3ccc(-c4cnccn4)cn3)cc2C)ccn1 [compound 86, N-{[4-methyl-5-(2-methylpyridin-4-yl)pyridin-2-yl]methyl}-5-(pyrazin-2-yl)pyridine-2-carboxamide]"
26,0.016 µM,"Cc1cc(-c2cnccn2)cnc1C(=O)NCc1ccc(-c2ccnc(C(F)(F)F)c2)nc1 [compound 87, 3-methyl-5-(pyrazin-2-yl)-N-({6-[2-(trifluoromethyl)pyridin-4-yl]pyridin-3-yl}methyl)pyridine-2-carboxamide]"
27,0.0044 µM,"Cc1cc(-c2ncc(CNC(=O)c3ccn(-c4cccc(F)c4)c(=O)c3)cc2C)ccn1 [compound 88, 1-(3-fluorophenyl)-N-{[5-methyl-6-(2-methylpyridin-4-yl)pyridin-3-yl]methyl}-2-oxo-1,2-dihydropyridine-4-carboxamide]"

# From US9181235B2, “Substituted pyridines for modulating the WNT signaling pathway” (NOVARTIS AG, priority 2010, dated 2015)
